From the supplement of paper PMC11451515

Test system: NOMO1
Assay: cell viability relative to DMSO control; higher = less cytotoxic
Settings: 48 h
Summary of the method: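 NOMO1 or SEM cells were plated at 500 cells/well and P12-Ichikawa cells at 1000 cells/well in 1536-well plates (5 μl), after each leukemia line had been adapted for at least four passages in each medium. Pin dosing delivered library compounds in DMSO at 11 threefold concentrations, 47 μM to 0.79 nM. CellTiter-Glo One luminescence was read after 48 h at 37°C. Viability is reported as a per-plate percentage of DMSO wells, with cell-free wells as background.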

[1] = HPLM + 10% dialyzed FBS, 0.000781 µM
[2] = HPLM + 10% dialyzed FBS, 0.00234 µM
[3] = HPLM + 10% dialyzed FBS, 0.00702 µM
[4] = HPLM + 10% dialyzed FBS, 0.0211 µM
[5] = HPLM + 10% dialyzed FBS, 0.0632 µM
[6] = HPLM + 10% dialyzed FBS, 0.19 µM
[7] = HPLM + 10% dialyzed FBS, 0.569 µM
[8] = HPLM + 10% dialyzed FBS, 1.71 µM
[9] = HPLM + 10% dialyzed FBS, 5.12 µM
[10] = HPLM + 10% dialyzed FBS, 15.4 µM
[11] = HPLM + 10% dialyzed FBS, 46.1 µM
[12] = RPMI 5 mM glucose + 10% FBS, 0.000781 µM
[13] = RPMI 5 mM glucose + 10% FBS, 0.00234 µM
[14] = RPMI 5 mM glucose + 10% FBS, 0.00702 µM
[15] = RPMI 5 mM glucose + 10% FBS, 0.0211 µM
[16] = RPMI 5 mM glucose + 10% FBS, 0.0632 µM
[17] = RPMI 5 mM glucose + 10% FBS, 0.19 µM
[18] = RPMI 5 mM glucose + 10% FBS, 0.569 µM
[19] = RPMI 5 mM glucose + 10% FBS, 1.71 µM
[20] = RPMI 5 mM glucose + 10% FBS, 5.12 µM
[21] = RPMI 5 mM glucose + 10% FBS, 15.4 µM
[22] = RPMI 5 mM glucose + 10% FBS, 46.1 µM
[23] = RPMI 5 mM glucose + 10% dialyzed FBS, 0.000781 µM
[24] = RPMI 5 mM glucose + 10% dialyzed FBS, 0.00234 µM
[25] = RPMI 5 mM glucose + 10% dialyzed FBS, 0.00702 µM
[26] = RPMI 5 mM glucose + 10% dialyzed FBS, 0.0211 µM
[27] = RPMI 5 mM glucose + 10% dialyzed FBS, 0.0632 µM
[28] = RPMI 5 mM glucose + 10% dialyzed FBS, 0.19 µM
[29] = RPMI 5 mM glucose + 10% dialyzed FBS, 0.569 µM
[30] = RPMI 5 mM glucose + 10% dialyzed FBS, 1.71 µM
[31] = RPMI 5 mM glucose + 10% dialyzed FBS, 5.12 µM
[32] = RPMI 5 mM glucose + 10% dialyzed FBS, 15.4 µM
[33] = RPMI 5 mM glucose + 10% dialyzed FBS, 46.1 µM

SMILES	cell viability [1] [%]	cell viability [2] [%]	cell viability [3] [%]	cell viability [4] [%]	cell viability [5] [%]	cell viability [6] [%]	cell viability [7] [%]	cell viability [8] [%]	cell viability [9] [%]	cell viability [10] [%]	cell viability [11] [%]	cell viability [12] [%]	cell viability [13] [%]	cell viability [14] [%]	cell viability [15] [%]	cell viability [16] [%]	cell viability [17] [%]	cell viability [18] [%]	cell viability [19] [%]	cell viability [20] [%]	cell viability [21] [%]	cell viability [22] [%]	cell viability [23] [%]	cell viability [24] [%]	cell viability [25] [%]	cell viability [26] [%]	cell viability [27] [%]	cell viability [28] [%]	cell viability [29] [%]	cell viability [30] [%]	cell viability [31] [%]	cell viability [32] [%]	cell viability [33] [%]
NCCCCNCCCN	110	101	119	112	109	95.3	116	121	105	67.1	26.7	108	99.6	98.2	104	99.4	104	94.8	99.1	105	103	27.7	107	104	111	107	107	105	110	115	119	109	35.4
CC[C@@]1(O)C(=O)OC\C2=C1\C=C\3N(CC4=C3N=C5C=CC=CC5=C4)C2=O	122	115	145	120	80.4	30.3	30.7	28.6	21.1	14.9	25.7	117	106	120	106	77.5	22.3	20.8	20.4	11.9	16.7	17.9	126	110	121	103	76.5	28.9	28.6	27.5	21.9	22.4	14
COc1ccc(C2Sc3ccccc3N(CCN(C)C)C(=O)C2OC(C)=O)cc1 (stereo unspecified)	118	114	124	114	112	114	113	120	119	110	89.2	97.3	108	105	96.9	100	108	99	102	100	95.4	94.8	115	104	112	107	113	111	115	109	100	98.7	85.2
CN(C)c1nc(Cc2ccc(NC(=O)c3ccc4ccccc4c3)cc2)nc(Cl)c1CC(=O)O	113	116	112	126	114	90.9	106	65.2	57.6	47.2	48.1	115	98.2	100	98.3	100	97	97.1	74.3	73	61.8	44.4	108	110	98.6	106	111	99.4	92.9	62.1	63.1	60.7	43.6
Nc1cc(C(F)(F)F)c(-c2cc(N3CCOCC3)nc(N3CCOCC3)n2)cn1	–	–	–	–	–	–	–	–	–	–	–	115	127	118	133	130	120	98.4	74.5	14.8	6.77	7.91	–	–	–	–	–	–	–	–	–	–	–
CNC[C@H](O)c1cccc(O)c1	92.9	92.1	98.8	36.8	111	103	109	110	99	113	122	78.1	86.8	94.7	26.9	93	89.4	90.6	92.8	88.6	102	99	78.3	88.4	98.3	32.9	98	102	101	87.7	82.3	91.1	103
COc1ccc2[nH]c([S+]([O-])Cc3ncc(C)c(OC)c3C)nc2c1 (stereo unspecified)	89.2	78.3	90.9	88.4	95.9	83.7	85.5	89.9	87.3	86.6	59.8	74.9	100	78.3	97	80.7	92	90	100	96.3	93.5	89.1	70.7	91.7	68	98.7	93.4	95.6	87.8	97.9	86	91.1	82.3
CC(O)(C#Cc1ccc2c(c1)N(c1nc(N)ncc1Cl)CC2)c1nccs1 (stereo unspecified)	98.7	119	132	104	130	131	130	134	152	136	87.5	–	–	–	–	–	–	–	–	–	–	–	124	113	136	131	135	135	135	127	138	147	110
